# Experimental data: US8551957B2, “Pharmaceutical composition comprising a glucopyranosyl-substituted benzene derivate” (Boehringer Ingelheim International GmbH, priority 2007, dated 2013)
# Experiments:
# [1] = test system: Zucker Diabetic Fatty (ZDF) rats (ZDF/Crl-Lepr^fa); experiment: oral glucose tolerance test in overnight fasted ZDF rats (1st Example); format: in vivo, rat; conditions: male ZDF rats
# Protocol: According to a first example an oral glucose tolerance test is performed in overnight fasted 9-weeks old male Zucker Diabetic Fatty (ZDF) rats (ZDF/Crl-Lepr^fa). A pre-dose blood sample is obtained by tail bleed. Blood glucose is measured with a glucometer, and the animals are randomized for blood glucose (n=5/group). Subsequently, the groups receive a single oral administration of either vehicle alone (0.5% aqueous hydroxyethylcellulose containing 3 mM HCl and 0.015% Polysorbat 80) or vehicle containing either the glucopyranosyl-substituted benzene derivative or the DPP IV inhibitor or the combination of the glucopyranosyl-substituted benzene derivative with the DPP IV inhibitor. The animals receive an oral glucose load (2 g/kg) 30 min after compound administration. Blood glucose is measured in tail blood 30 min, 60 min, 90 min, 120 min, and 180 min after the glucose challenge. Glucose excursion is quantified by calculating the reactive glucose AUC. The data are presented as mean±SEM. The two-sided unpaired Student t-test is used for statistical comparison of the control group and the active groups.
# “Cpd. A” is the DPP IV inhibitor 1-[(4-methyl-quinazolin-2-yl)methyl]-3-methyl-7-(2-butyn-1-yl)-8-(3-(R)-amino-piperidin-1-yl)-xanthine at a dose of 1 mg/kg. Cpd. […]
# [2] = test system: Sprague Dawley rats (Crl:CD(SD)); experiment: oral glucose tolerance test in overnight fasted Sprague Dawley rats (2nd Example); format: in vivo, rat; conditions: male Sprague Dawley rats, not statistically significant
# Protocol: (§1) According to a second example an oral glucose tolerance test is performed in overnight fasted male Sprague Dawley rats (Crl:CD(SD)) with a body weight of about 200 g. A pre-dose blood sample is obtained by tail bleed. Blood glucose is measured with a glucometer, and the animals are randomized for blood glucose (n=5/group). Subsequently, the groups receive a single oral administration of either vehicle alone (0.5% aqueous hydroxyethylcellulose containing 0.015% Polysorbat 80) or vehicle containing either the glucopyranosyl-substituted benzene derivative or the DPPIV inhibitor or the combination of the glucopyranosyl-substituted benzene derivative with the DPPIV inhibitor. The animals receive an oral glucose load (2 g/kg) 30 min after compound administration. Blood glucose is measured in tail blood 30 min, 60 min, 90 min, and 120 min after the glucose challenge. Glucose excursion is quantified by calculating the reactive glucose AUC. The data are presented as mean±S.E.M. Statistical comparisons are conducted by Student's t test.
# “Cpd. A” is the glucopyranosyl-substituted benzene derivative (9), i.e. 1-chloro-4-(β-D-glucopyranos-1-yl)-2-[4-((S)-tetrahydrofuran-3-yloxy)-benzyl]-benzene, administered at a dose of 3 mg/kg. The DPPIV inhibitor saxagliptin is administered at a dose of 0.3 mg/kg. […]
# [3] = test system: Sprague Dawley rats (Crl:CD(SD)); experiment: oral glucose tolerance test in overnight fasted Sprague Dawley rats (3rd Example); format: in vivo, rat; conditions: male Sprague Dawley rats, not statistically significant
# Protocol: as §1
# In a third example the same experimental setting is employed as in the second example as described herein before. The glucopyranosyl-substituted benzene derivative (9), i.e. 1-chloro-4-(β-D-glucopyranos-1-yl)-2-[4-((S)-tetrahydrofuran-3-yloxy)-benzyl]-benzene, is administered at a dose of 3 mg/kg. […]
# [4] = in the diabetic, metformin on its own; cited from earlier work
# [5] = single oral dose 3 mg/kg 30 min before glucose load 2 g/kg
structure (smiles),measurement,setting,value
"OC[C@H]1O[C@@H](c2ccc(Cl)c(Cc3ccc(O[C@H]4CCOC4)cc3)c2)[C@H](O)[C@@H](O)[C@@H]1O [(9), 1-chloro-4-(β-D-glucopyranos-1-yl)-2-[4-((S)-tetrahydrofuran-3-yloxy)-benzyl]-benzene]",reduction of glucose excursion (reactive glucose AUC),[1]; single oral dose 3 mg/kg 30 min before oral glucose load 2 g/kg,51%
same,reduction of glucose excursion (reactive glucose AUC),[2]; [5],21%
same,reduction of glucose excursion (reactive glucose AUC),[3]; [5],21%
"N#C[C@@H]1C[C@@H]2C[C@@H]2N1C(=O)[C@@H](N)C12CC3CC(CC(O)(C3)C1)C2 [saxagliptin, (1S,3S,5S)-2-{(2S)-2-amino-2-(3-hydroxyadamantan-1-yl)acetyl}-2-azabicyclo[3.1.0]hexane-3-carbonitrile, reference compound]",reduction of glucose excursion (reactive glucose AUC),[2]; single oral dose 0.3 mg/kg 30 min before glucose load 2 g/kg,12%
CN(C)C(=N)N=C(N)N [metformin],average improvement in the HbA1c value,[4],1.0-1.5%
"CC#CCn1c(N2CCC[C@@H](N)C2)nc2c1c(=O)n(Cc1nc(C)c3ccccc3n1)c(=O)n2C [Cpd. A, 1-[(4-methyl-quinazolin-2-yl)methyl]-3-methyl-7-(2-butyn-1-yl)-8-(3-(R)-amino-piperidin-1-yl)-xanthine]",reduction of glucose excursion (reactive glucose AUC),[1]; single oral dose 1 mg/kg 30 min before oral glucose load 2 g/kg,56%
"N[C@@H](CC(=O)N1CCn2c(nnc2C(F)(F)F)C1)Cc1cc(F)c(F)cc1F [sitagliptin, (3R)-3-amino-1-[3-(trifluoromethyl)-5,6,7,8-tetrahydro-5H-[1,2,4]triazolo[4,3-a]pyrazin-7-yl]-4-(2,4,5-trifluorophenyl)butan-1-one, reference compound]",reduction of glucose excursion (reactive glucose AUC),[3]; single oral dose 10 mg/kg 30 min before glucose load 2 g/kg,16%
